Assay: in vitro
Conditions: human, hela cells, % viability

Structure (SMILES)	viability at 28.5 h, 10 µM
Cc1cc(C(F)(F)F)nc(SCC(=O)N2c3ccccc3Sc3ccccc32)n1 [CBK268078]	90.8%
O=C(COc1ccc(F)cc1)N1CCN(c2ncccn2)CC1 [CBK144499]	94.1%
c1cnc2c(OCc3nc4ccccc4[nH]3)cccc2c1 [CBK268556]	74.6%
COc1ccc(NC(=O)c2c[nH]c3nc(C)ccc3c2=O)cc1 [CBK287816]	88.4%
COc1ccnc(N2CCN(C(=O)c3ccc(C)n3C)CC2)n1 [CBK305803]	84.7%
CCOC(=O)c1cnn2c(O)cc(CN(Cc3ccco3)C3CC3)nc12 [CBK305613]	82.3%
CCCC(=O)N[C@@H](Cn1c(=O)oc2ccccc21)C(C)C [CBK284536]	91.2%
CCOc1cc(OCC)cc(C(=O)N2CCC3(CC2)CC(=O)c2cc(OCCN(C)C)ccc2O3)c1 [CBK169003T]	89.3%
Cc1ccc(-n2c(SCC(=O)N3CCC(C(=O)O)CC3)nc3ccccc3c2=O)cc1C [CBK297540]	81.4%
O=C(Cc1nnc(-c2ccncc2)o1)NCCC1=CCCCC1 [CBK288605]	117%
CN(C)CC1CCCCN1C(=O)C1CC(=O)N(c2cccc(F)c2)C1 (stereo not shown) [CBK282192]	108%
O=C(NCc1csc2c1CCCC2)N1CCCC(c2cc(O)ncn2)C1 (stereo not shown) [CBK306705]	99.3%
O=C(C1CCCN(S(=O)(=O)c2ccc(F)cc2)C1)N(Cc1ccccc1)Cc1ccccc1 (stereo not shown) [CBK267652]	108%
O=C(NCCNc1cnccn1)c1ccc(Br)cc1F [CBK305639]	89.5%
CN(C)c1nc(N(C)CC2(CO)CCOCC2)ncc1F [CBK307091]	110%
CC(C)(CO)C(O)C(=O)NC1CCCC(C(=O)O)C1 (stereo not shown) [CBK286609]	96%
Cc1cc(=O)c2ccccc2n1CC(=O)N(C)CC1CCCCO1 (stereo not shown) [CBK306960]	94.4%
CC(C)(C)CN1CCC(Oc2nccnc2OCc2ccc(Br)cc2F)CC1 [CBK161946]	116%
O=C1Nc2ccc(-c3ccsc3)cc2C1(O)O [CBK000421]	84.5%
COC(=O)c1sc2cc(NC(=S)NNC(=O)c3ccoc3C)ccc2c1Cl [CBK266877]	83.3%
Cc1ccc(CNC(=O)C2CCN(S(=O)(=O)N3CCOCC3)CC2)cc1 [CBK294467]	103%
Nc1ncc(-c2cc(C(F)(F)F)cc(C(F)(F)F)c2)nc1Nc1ccc2[nH]ccc2c1 [CBK063651]	71.9%

Structure (SMILES)	viability at 28.5 h, 10 µM
CCOCN(C(=O)Cn1c(C(C)O)nc2ccccc21)c1c(C)cccc1CC (stereo not shown) [CBK297722]	87.6%
CCOc1ccc(N(Cc2cc3cc(C)ccc3nc2O)S(=O)(=O)c2ccccc2)cc1 [CBK267924]	120%
CSc1ccc(CN(C)CCN(C)C)cc1 [CBK019349]	97.9%
O=C(C(Cc1ccccc1)N1C(=O)C2CCCCC2C1=O)N1CCN(Cc2ccc3c(c2)OCO3)CC1 (stereo not shown) [CBK264648]	102%
CSc1ccccc1NC(=O)c1cc(Cl)sc1Cl [CBK057008]	99.2%
CC(C)[C@@H](CO)Nc1nc(-c2cccnc2)cn2ccnc12 [CBK037539]	94%
CCOc1ccc2c(c1)cc(C(=O)NCc1cc(CC)no1)n2C [CBK281553]	95.5%
COc1ccc(CN2Cc3nc[nH]c3C[C@H]2C(=O)NCc2ccccc2)c2ccccc12 [CBK288976]	86.5%
CC(Oc1ccc(F)cc1)C(=O)Nc1ccc(S(N)(=O)=O)cc1 (stereo not shown) [CBK265506]	92.3%
COc1ccc(C(=O)N2CCN(c3ccc(NC(=O)c4cccnc4)cc3)CC2)cc1 [CBK270200]	85.5%
Cc1cc(CCCC(=O)N2CCCC(c3ccc(Nc4ncccn4)cn3)C2)ccc1F (stereo not shown) [CBK286003]	78.6%
O=S(=O)(Nc1nnn[nH]1)c1ccc(F)cc1 [CBK050473]	104%
CSc1nc2ccc(S(=O)(=O)N3CCCC3)cc2s1 [CBK268400]	104%
COC(=O)c1cc(S(=O)(=O)N2c3ccccc3CC2C)cn1C (stereo not shown) [CBK304384]	81.4%
O=C(NCCCn1ccnc1)c1cccc(S(=O)(=O)N2CCCCC2)c1 [CBK304687]	111%
COc1ccc(CCN(CCc2ccccc2)CC(O)COc2cccc3c2CCCC3)cc1 (stereo not shown) [CBK024506T]	82.2%
COc1ccc(C2NC(C(=O)O)C3C(=O)N(c4ccc(C)cc4)C(=O)C23)c(OC)c1 (stereo not shown) [CBK287233]	90.2%
COc1c(C)cnc(CNC2CCCN(Cc3noc(C)n3)C2)c1C (stereo not shown) [CBK305350]	92.3%
O=C(OCc1ccccc1)Oc1cncc(C(=O)O)c1 [CBK262053]	91.1%
CS(=O)(=O)c1ccc(CNC(=O)c2ccccc2-n2cccc2)cc1 [CBK149612]	94.2%
Cc1c(C(=O)N2CCn3nc(CO)cc3C2)n(C)c2ccc(F)cc12 [CBK306552]	97.7%
CCCCOc1ccc(-c2nonc2NC(=O)COc2ccccc2Cl)cc1 [CBK299792]	117%

Structure (SMILES)	viability at 28.5 h, 10 µM
CN(C)C(CNc1nccnc1-c1ccccc1F)c1cccnc1 (stereo not shown) [CBK037290]	101%
Cc1nn(C)cc1CN(Cc1ccccc1)CC1CCCO1 (stereo not shown) [CBK283264]	94.4%
O=C(O)CNCc1ccc(-c2ccc(Cl)cc2)o1 [CBK287258]	102%
FC(F)(F)c1ccc(CN2CCCN(c3cc(OC4CCCCC4)ncn3)CC2)cc1 [CBK083277T]	112%
c1cc(CNc2nccnc2-c2ccsc2)ccn1 [CBK037513]	103%
CC(=O)c1ccc(-c2nc(-c3ccoc3)cnc2N)cc1 [CBK064058]	97.3%
Cc1sc2nc(SCCCC(=O)NCCO)nc(N)c2c1C [CBK264482]	96.2%
Cc1cc(N2C(=O)c3ccc(C(=O)O)cc3C2=O)ccc1NC(=O)c1cccs1 [CBK265415]	92.8%
O=C(c1ccc2occc2c1)N1CCCC2(CCN(C(=O)c3cc(F)c(F)cc3F)C2)C1 (stereo not shown) [CBK137071]	90.1%
Cc1cc2ncn(CC(=O)Nc3c(C)noc3C)c2cc1C [CBK200222]	79.5%
Cc1c(Cl)cccc1NC(=O)c1cnc2sccn2c1=O [CBK246518]	115%
Cc1nn(CCC#N)c(C)c1CCC(=O)NCc1cn2ccccc2n1 [CBK304540]	88.1%
O=C(Cc1cccc(F)c1)N1CCC(O)(c2cccnc2F)CC1 [CBK284362]	90.5%
O=C(CSCc1ccc(Cl)cc1)Nc1ccc(S(=O)(=O)N2CCCCCC2)cc1 [CBK267017]	112%
COCCOCC(C)NC(=O)COc1nn(C)c2nc(C)cc(C)c12 (stereo not shown) [CBK305177]	105%
O=S(=O)(NCCSCc1c(Cl)cccc1Cl)c1ccc(Cl)cc1 [CBK265304]	91.2%
Cn1nc(C2CC2)cc1C(=O)NCCN1CCc2ccccc21 [CBK282138]	91.5%
O=c1[nH]c2ncc(-c3ccccc3)nc2n1CCCN1CCOCC1 [CBK064805]	111%
O=C(CSc1nnc(CN2CCOCC2)n1-c1ccccc1)N1CCN(c2ccccc2)CC1 [CBK266660]	102%
CC(C)Oc1ccc(-c2cc(C(=O)NCc3ccncc3)c3ccccc3n2)cc1 [CBK293957]	106%
O=C(NC1=NC2CCCCC2N1)c1ccccc1 (stereo not shown) [CBK266354]	103%
COc1ccc(-c2cc(C(=O)NCCc3c[nH]cn3)cnc2-c2ccc(F)cc2)cn1 [CBK036675]	112%

Structure (SMILES)	viability at 28.5 h, 10 µM
CSc1ccc(-c2cnc3ncccc3c2N)cc1 [CBK083680]	101%
COc1ccccc1CC(C)NC(=O)c1csc(C(C)=O)c1 (stereo not shown) [CBK282517]	114%
Cc1csc2c(C3CCCN(C(=O)c4ccccn4)C3)nc(C)n12 (stereo not shown) [CBK284594]	98.6%
O=C1NC(=O)C(CCCCN2CCC3(CCN(C(=O)c4cc(F)c(F)cc4F)C3)C2)N1 (stereo not shown) [CBK132147]	84.8%
N#CCCN(C(=O)NCc1c(Cl)cccc1Cl)C1CCCCC1 [CBK156371]	88%
NC(=O)OC(c1ccccc1[N+](=O)[O-])P(=O)(c1ccccc1)c1ccccc1 (stereo not shown) [CBK261383]	88.3%
CNC(=O)c1cccc(NC(=O)c2cc(-c3ccc(O)cc3)cnc2N(C)C)c1 [CBK106397]	89.6%
COc1cc2c(c(OC)c1OC)CC(=O)NC21CCN(C(=O)NC(C)(C)C)CC1 [CBK047301]	94.2%
Cn1ncc(Cl)c1C1CCCCCN1S(=O)(=O)c1ccc2[nH]c(=O)[nH]c(=O)c2c1 (stereo not shown) [CBK286303]	102%
Cc1c(C(=O)O)sc2nc(SCC(=O)Nc3ccc(OCc4ccccc4)cc3)[nH]c(=O)c12 [CBK296992]	88.5%
CN(C)[C@@H]1CN(Cc2ccccn2)C[C@H]1c1cn(C)c2ccccc12 [CBK284582]	97.9%
OC(CNc1cccc2ccccc12)Cn1c2ccc(Br)cc2c2cc(Br)ccc21 (stereo not shown) [CBK261420]	99.8%
O=C(O)CCC(C(=O)O)N1C(=O)c2c(Cl)c(Cl)c(Cl)c(Cl)c2C1=O (stereo not shown) [CBK264308]	102%
O=C(Nc1ccccc1Br)C1CCCC1 [CBK092059]	111%
O=C1c2ccccc2C(=O)N1c1ccc2nc(SCc3nc4ccccc4[nH]3)sc2c1 [CBK263368]	95%
O=C(Nn1cnnc1)c1ccccc1F [CBK027603]	106%
Cc1cc(S(=O)(=O)NCCCn2ccnc2)c(C)cc1Br [CBK269525]	91.8%
C#CCNC(=O)c1nn(-c2nc3ccccc3s2)c2ccccc12 [CBK048486]	99.2%
CC1(C)Cc2c(ccc3ccccc23)C(NC(Cc2c[nH]c3ccccc23)C(=O)O)=N1 (stereo not shown) [CBK262569]	89.4%
O=C1N[C@@H](Cc2ccc(F)cc2)C(=O)N2CCN(C(=O)c3cccc(F)c3)C[C@H]12 [CBK289600]	111%
Cc1nnc(Sc2cc(C(F)(F)F)ccn2)s1 [CBK115215]	87.6%

Same assay, conditions: human, hela cells, % viability, bulk resorufin, single well

Structure (SMILES)	viability at 28.5 h, 10 µM
CC(C)(C)c1ccccc1NC(=O)N1CCC2(CC1)OCCO2 [CBK043720]	91.3%

From article PMC12040169 (PLOS Biology, 2025)
